From patent US20070298105A1, “METHODS OF TREATING CONDITIONS BY SUSTAINED RELEASE ADMINISTRATION OF BENZIMIDAZOLE DERIVATIVES” (priority 2006, published 2007)
Where two headings read alike, the source gives them in different places.

How the values were obtained:
[1] = system: intragastric pH; experiment: Colonic intubation study: intragastric pH profile (percent of time with pH >4); type: in vivo, human
Description: A single-dose, open-label, partially randomized, five-treatment, five-period, crossover pilot study was performed in healthy males to determine relative pharmacokinetics of rabeprazole, and comparators when dosed either orally or colonically. The study was a single dose study with blood sampling up to 24 hours following initiation.
Treatments A and B were rabeprazole sodium solution dosed to provide 30 and 60 mg, respectively, over 20 hours in the transverse colon of the subjects. Colonic dosing occurred using a nasoenteral tube. Treatment C was a single 20 mg dose of rabeprazole sodium oral enteric coated tablets dosed orally. Treatment D was placebo (200 mL of water) dosed orally.
The intragastric pH profile was analyzed based on the percentage of time that the intragastric pH was above 4, which was calculated for the full 24 hours. In addition, the mean pH value over 5 time intervals of 6 hours each during the 30-hr sampling time was also estimated.

[2] = Colonic intubation study: plasma pharmacokinetics of rabeprazole and esomeprazole; type: in vivo, human; details: for AUC(0-inf): read-out: AUCinf (mean)
Description: A single-dose, open-label, partially randomized, five-treatment, five-period, crossover pilot study was performed in healthy males to determine relative pharmacokinetics of rabeprazole, and comparators when dosed either orally or colonically. The study was a single dose study with blood sampling up to 24 hours following initiation. […] Colonic dosing occurred using a nasoenteral tube. Treatment C was a single 20 mg dose of rabeprazole sodium oral enteric coated tablets dosed orally. Treatment D was placebo (200 mL of water) dosed orally. […] For subjects whose apparent elimination rate constant [k] could not be properly determined, the AUC to infinity [AUCinf]) was calculated based on the median apparent elimination constant [k] of the subjects with available t1/2 values in the same treatment period. […] The intragastric pH profile were determined.

[3] = male, human, plasma, other: colonic (nasoenteral tube into the transverse colon), 30 mg, TRT A: rabeprazole 30 mg solution in the colon over 20 hours, N = 19
[4] = male, human, plasma, other: colonic (nasoenteral tube into the transverse colon), 30 mg, TRT A: rabeprazole 30 mg solution in the colon over 20 hours, subset N = 14
[5] = male, human, plasma, other: colonic (nasoenteral tube into the transverse colon), 60 mg, TRT B: rabeprazole 60 mg solution in the colon over 20 hours, N = 19
[6] = male, human, plasma, other: colonic (nasoenteral tube into the transverse colon), 60 mg, TRT B: rabeprazole 60 mg solution in the colon over 20 hours, subset N = 14
[7] = male, human, plasma, po, 20 mg, TRT C: rabeprazole 20 mg oral tablet, N = 19
[8] = male, human, plasma, po, 20 mg, TRT C: rabeprazole 20 mg oral tablet, subset N = 14

COCCCOc1ccnc(C[S+]([O-])c2nc3ccccc3[nH]2)c1C (centres unmarked) [Rabeprazole, 2-[[[4-(3-methoxypropoxy)-3-methyl-2-pyridinyl]-methyl]sulfinyl]-1H-benzimidazole]
Mean percent of time with pH >4 ([1]; 0-6 hr (10 am-4 pm), TRT A: rabeprazole 30 mg solution in the colon, N = 19): 30.6%
Mean percent of time with pH >4 ([1]; 0-6 hr (10 am-4 pm), TRT B: rabeprazole 60 mg solution in the colon, N = 19): 32.6%
Mean percent of time with pH >4 ([1]; 0-6 hr (10 am-4 pm), TRT B: rabeprazole 60 mg solution in the colon, subset N = 14): 34.6%
Mean percent of time with pH >4 ([1]; 0-6 hr (10 am-4 pm), TRT C: rabeprazole 20 mg oral tablet, N = 19): 31.1%
Mean percent of time with pH >4 ([1]; 0-6 hr (10 am-4 pm), TRT C: rabeprazole 20 mg oral tablet, subset N = 14): 29.1%
Mean percent of time with pH >4 ([1]; 6-12 hr (4 pm-10 pm), TRT A: rabeprazole 30 mg solution in the colon, N = 19): 37.9%
Mean percent of time with pH >4 ([1]; 6-12 hr (4 pm-10 pm), TRT B: rabeprazole 60 mg solution in the colon, N = 19): 50.5%
Mean percent of time with pH >4 ([1]; 6-12 hr (4 pm-10 pm), TRT B: rabeprazole 60 mg solution in the colon, subset N = 14): 55.8%
Mean percent of time with pH >4 ([1]; 6-12 hr (4 pm-10 pm), TRT C: rabeprazole 20 mg oral tablet, N = 19): 60.9%
Mean percent of time with pH >4 ([1]; 6-12 hr (4 pm-10 pm), TRT C: rabeprazole 20 mg oral tablet, subset N = 14): 63.6%
Mean percent of time with pH >4 ([1]; 12-18 hr (10 pm-4 am), TRT A: rabeprazole 30 mg solution in the colon, N = 19): 23.2%
Mean percent of time with pH >4 ([1]; 12-18 hr (10 pm-4 am), TRT B: rabeprazole 60 mg solution in the colon, N = 19): 34.3%
Mean percent of time with pH >4 ([1]; 12-18 hr (10 pm-4 am), TRT B: rabeprazole 60 mg solution in the colon, subset N = 14): 39.9%
Mean percent of time with pH >4 ([1]; 12-18 hr (10 pm-4 am), TRT C: rabeprazole 20 mg oral tablet, N = 19): 25.9%
Mean percent of time with pH >4 ([1]; 12-18 hr (10 pm-4 am), TRT C: rabeprazole 20 mg oral tablet, subset N = 14): 26.7%
Mean percent of time with pH >4 ([1]; 18-24 hr (4 am-10 am), TRT A: rabeprazole 30 mg solution in the colon, N = 19): 47.2%
Mean percent of time with pH >4 ([1]; 18-24 hr (4 am-10 am), TRT B: rabeprazole 60 mg solution in the colon, N = 19): 64.0%
Mean percent of time with pH >4 ([1]; 18-24 hr (4 am-10 am), TRT B: rabeprazole 60 mg solution in the colon, subset N = 14): 68.9%
Mean percent of time with pH >4 ([1]; 18-24 hr (4 am-10 am), TRT C: rabeprazole 20 mg oral tablet, N = 19): 37.8%
Mean percent of time with pH >4 ([1]; 18-24 hr (4 am-10 am), TRT C: rabeprazole 20 mg oral tablet, subset N = 14): 35.4%
Mean percent of time with pH >4 ([1]; 24-30 hr (10 am-4 pm), TRT A: rabeprazole 30 mg solution in the colon, N = 19): 45.4%
Mean percent of time with pH >4 ([1]; 24-30 hr (10 am-4 pm), TRT B: rabeprazole 60 mg solution in the colon, N = 19): 64.4%
Mean percent of time with pH >4 ([1]; 24-30 hr (10 am-4 pm), TRT B: rabeprazole 60 mg solution in the colon, subset N = 14): 72.0%
Mean percent of time with pH >4 ([1]; 24-30 hr (10 am-4 pm), TRT C: rabeprazole 20 mg oral tablet, N = 19): 43.6%
Mean percent of time with pH >4 ([1]; 24-30 hr (10 am-4 pm), TRT C: rabeprazole 20 mg oral tablet, subset N = 14): 45.4%
Mean percent of time with pH >4 ([1]; 24-hr average, TRT A: rabeprazole 30 mg solution in the colon, N = 19): 34.7%
Mean percent of time with pH >4 ([1]; 24-hr average, TRT A: rabeprazole 30 mg solution in the colon, N = 19, listed as rabeprazole): 35%
Mean percent of time with pH >4 ([1]; 24-hr average, TRT B: rabeprazole 60 mg solution in the colon, N = 19): 44.9%
Mean percent of time with pH >4 ([1]; 24-hr average, TRT B: rabeprazole 60 mg solution in the colon, N = 19, listed as rabeprazole): 45%
Mean percent of time with pH >4 ([1]; 24-hr average, TRT B: rabeprazole 60 mg solution in the colon, subset N = 14): 49.2%
Mean percent of time with pH >4 ([1]; 24-hr average, TRT C: rabeprazole 20 mg oral tablet, N = 19): 38.9%
Mean percent of time with pH >4 ([1]; 24-hr average, TRT C: rabeprazole 20 mg oral tablet, N = 19, listed as rabeprazole): 39%
Mean percent of time with pH >4 ([1]; 24-hr average, TRT C: rabeprazole 20 mg oral tablet, subset N = 14): 38.7%
dose dependence of percentage of time with pH >4 ([1]; 30 and 60 mg colonic rabeprazole treatments, 6-12 h period and beyond): dose-dependent increase
effect on percentage of time with pH >4 compared to placebo ([1]; first 6 hours of treatment, rabeprazole Treatments A, B and C): not significantly different from placebo
gastric pH control compared with rabeprazole 20 mg tablet ([1]; rabeprazole 60 mg colonic treatment, especially during the night-time period (12-30 hr)): better gastric pH control
dose proportionality of mean Cmax and AUC ([2]; 30 mg and 60 mg colonic treatments): increased approximately dose proportionally
Tmax ([2]; male, human, plasma, other: colonic (nasoenteral tube into the transverse colon), 30 mg, 30 mg rabeprazole colonic solution treatment, after start of treatment (colon infusion ended at 20 hr), read-out: median Tmax): ~18 h
AUC(0-t) [2, 3]: 0.287 µg·h/mL
AUC(0-inf) [2, 3]: 0.332 µg·h/mL
Tmax ([2]; male, human, plasma, other: colonic (nasoenteral tube into the transverse colon), 30 mg, TRT A: rabeprazole 30 mg solution in the colon over 20 hours, N = 19, read-out: Tmax (median)): 18 h
half-life ([2]; male, human, plasma, other: colonic (nasoenteral tube into the transverse colon), 30 mg, TRT A: rabeprazole 30 mg solution in the colon over 20 hours, N = 19, read-out: t1/2 (median) (converted)): 2 h
Cmax ([2]; male, human, plasma, other: colonic (nasoenteral tube into the transverse colon), 30 mg, TRT A: rabeprazole 30 mg solution in the colon over 20 hours, single dose, healthy males, N = 19): 0.018 µg/mL
AUC(0-t) [2, 4]: 0.29 µg·h/mL
AUC(0-inf) [2, 4]: 0.343 µg·h/mL
half-life ([2]; male, human, plasma, other: colonic (nasoenteral tube into the transverse colon), 30 mg, TRT A: rabeprazole 30 mg solution in the colon over 20 hours, subset N = 14, read-out: t1/2 (median) (converted)): 2 h
Tmax ([2]; male, human, plasma, other: colonic (nasoenteral tube into the transverse colon), 60 mg, 60 mg rabeprazole colonic solution treatment, after start of treatment (colon infusion ended at 20 hr), read-out: median Tmax): ~18 h
AUC(0-t) [2, 5]: 0.549 µg·h/mL
AUC(0-inf) [2, 5]: 0.599 µg·h/mL
Tmax ([2]; male, human, plasma, other: colonic (nasoenteral tube into the transverse colon), 60 mg, TRT B: rabeprazole 60 mg solution in the colon over 20 hours, N = 19, read-out: Tmax (median)): 18 h
half-life ([2]; male, human, plasma, other: colonic (nasoenteral tube into the transverse colon), 60 mg, TRT B: rabeprazole 60 mg solution in the colon over 20 hours, N = 19, read-out: t1/2 (median) (converted)): 1.9 h
Cmax ([2]; male, human, plasma, other: colonic (nasoenteral tube into the transverse colon), 60 mg, TRT B: rabeprazole 60 mg solution in the colon over 20 hours, single dose, healthy males, N = 19): 0.0384 µg/mL
AUC(0-t) [2, 6]: 0.586 µg·h/mL
AUC(0-inf) [2, 6]: 0.646 µg·h/mL
half-life ([2]; male, human, plasma, other: colonic (nasoenteral tube into the transverse colon), 60 mg, TRT B: rabeprazole 60 mg solution in the colon over 20 hours, subset N = 14, read-out: t1/2 (median) (converted)): 2.1 h
half-life ([2]; male, human, plasma, other: colonic (nasoenteral tube into the transverse colon), rabeprazole following colonic treatment, read-out: median plasma half-life (converted)): ~2 h
bioavailability ([2]; male, human, plasma, other: colonic (nasoenteral tube into the transverse colon), colonic treatment compared to oral tablets, dose-normalized basis, read-out: percent relative bioavailability (colonic bioavailability)): ~40%
Cmax ([2]; male, human, plasma, other: colonic (transverse colon, via nasoenteral tube), 30 mg, TRT A: rabeprazole 30 mg solution in the colon over 20 hours, subset N = 14): 0.0187 µg/mL
Tmax ([2]; male, human, plasma, other: colonic (transverse colon, via nasoenteral tube), 30 mg, TRT A: rabeprazole 30 mg solution in the colon over 20 hours, subset N = 14, read-out: Tmax (median)): 18 h
Cmax ([2]; male, human, plasma, other: colonic (transverse colon, via nasoenteral tube), 60 mg, TRT B: rabeprazole 60 mg solution in the colon over 20 hours, subset N = 14): 0.0437 µg/mL
Tmax ([2]; male, human, plasma, other: colonic (transverse colon, via nasoenteral tube), 60 mg, TRT B: rabeprazole 60 mg solution in the colon over 20 hours, subset N = 14, read-out: Tmax (median)): 18 h
Tmax ([2]; male, human, plasma, po, 20 mg, 20 mg rabeprazole oral tablet treatment, read-out: median Tmax): 4.5 to 6 h
AUC(0-t) [2, 7]: 0.534 µg·h/mL
AUC(0-inf) [2, 7]: 0.603 µg·h/mL
Tmax ([2]; male, human, plasma, po, 20 mg, TRT C: rabeprazole 20 mg oral tablet, N = 19, read-out: Tmax (median)): 4.5 h
half-life ([2]; male, human, plasma, po, 20 mg, TRT C: rabeprazole 20 mg oral tablet, N = 19, read-out: t1/2 (median) (converted)): 0.96 h
Cmax ([2]; male, human, plasma, po, 20 mg, TRT C: rabeprazole 20 mg oral tablet, single dose, healthy males, N = 19): 0.239 µg/mL
AUC(0-t) [2, 8]: 0.619 µg·h/mL
Cmax [2, 8]: 0.267 µg/mL
AUC(0-inf) [2, 8]: 0.697 µg·h/mL
Tmax ([2]; male, human, plasma, po, 20 mg, TRT C: rabeprazole 20 mg oral tablet, subset N = 14, read-out: Tmax (median)): 6 h
half-life ([2]; male, human, plasma, po, 20 mg, TRT C: rabeprazole 20 mg oral tablet, subset N = 14, read-out: t1/2 (median) (converted)): 1 h
half-life ([2]; male, human, plasma, po, 20 mg, rabeprazole following oral administration, read-out: median plasma half-life (converted)): ~1 h
AUC compared with 20 mg oral tablet ([2]; rabeprazole 60 mg colonic treatment): comparable AUC
